{
  "source": "paper PMC4222986",
  "about": "(Journal of neurochemistry, 2014)",
  "key": {"[1]": {"target": "T1, human D3 dopamine receptors (Homo sapiens, UniProt P35462)", "T1 sequence (P35462 whole entry)": "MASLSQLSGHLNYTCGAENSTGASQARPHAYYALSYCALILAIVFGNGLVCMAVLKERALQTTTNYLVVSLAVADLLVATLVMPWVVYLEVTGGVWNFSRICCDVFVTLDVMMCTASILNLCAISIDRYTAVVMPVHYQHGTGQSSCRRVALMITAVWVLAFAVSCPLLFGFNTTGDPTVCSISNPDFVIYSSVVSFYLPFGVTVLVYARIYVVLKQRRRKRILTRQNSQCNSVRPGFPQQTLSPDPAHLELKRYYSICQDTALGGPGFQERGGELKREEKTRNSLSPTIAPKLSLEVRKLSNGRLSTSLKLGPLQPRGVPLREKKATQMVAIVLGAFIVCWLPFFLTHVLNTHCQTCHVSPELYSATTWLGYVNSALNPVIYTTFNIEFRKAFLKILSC", "assay": "competitive radioligand binding with [3H]LS-3-134, hD3 HEK-293"}, "[2]": {"target": "rat D3 dopamine receptors (Rattus norvegicus, UniProt P19020)", "sequence (P19020 whole entry)": "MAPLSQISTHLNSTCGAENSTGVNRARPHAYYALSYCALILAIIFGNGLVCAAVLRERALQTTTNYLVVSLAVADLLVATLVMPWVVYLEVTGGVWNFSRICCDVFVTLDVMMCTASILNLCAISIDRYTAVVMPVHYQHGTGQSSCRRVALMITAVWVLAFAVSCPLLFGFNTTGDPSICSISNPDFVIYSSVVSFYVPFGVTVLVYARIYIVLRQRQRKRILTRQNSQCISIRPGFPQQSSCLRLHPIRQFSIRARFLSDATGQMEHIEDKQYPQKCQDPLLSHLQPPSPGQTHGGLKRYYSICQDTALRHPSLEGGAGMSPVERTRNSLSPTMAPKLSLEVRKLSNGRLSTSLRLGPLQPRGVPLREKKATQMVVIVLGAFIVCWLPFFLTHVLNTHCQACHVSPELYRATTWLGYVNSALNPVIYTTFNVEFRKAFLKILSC", "assay": "competitive radioligand binding with [3H]LS-3-134, rD3 HEK-293"}, "rat striatal tissue": {"target": "rat striatal tissue (Rattus norvegicus, UniProt P19020)", "sequence (P19020 whole entry)": "as above", "assay": "competitive radioligand binding with [3H]LS-3-134, rat striatal tissue", "settings": "Ki values [^3H]LS-3-134 rat striatum, mean ± S.E.M., n ≥ 3, Cheng & Prusoff"}, "[3]": {"target": "T2, human D2 dopamine receptors (Homo sapiens, UniProt P14416)", "T2 sequence (P14416 whole entry)": "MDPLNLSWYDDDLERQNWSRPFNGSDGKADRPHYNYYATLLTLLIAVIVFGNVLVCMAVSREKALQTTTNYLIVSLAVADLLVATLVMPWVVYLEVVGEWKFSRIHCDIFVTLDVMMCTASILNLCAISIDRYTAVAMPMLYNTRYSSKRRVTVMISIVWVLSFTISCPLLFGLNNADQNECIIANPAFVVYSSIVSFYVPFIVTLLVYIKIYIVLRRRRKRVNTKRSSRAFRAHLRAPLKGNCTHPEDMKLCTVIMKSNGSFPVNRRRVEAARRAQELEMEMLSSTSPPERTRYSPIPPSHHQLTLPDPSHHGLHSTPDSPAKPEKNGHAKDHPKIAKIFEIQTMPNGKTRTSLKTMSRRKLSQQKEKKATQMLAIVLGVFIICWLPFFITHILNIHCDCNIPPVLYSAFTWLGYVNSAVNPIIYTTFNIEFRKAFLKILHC", "settings": "ratio of Ki values of Table I"}, "[4]": {"target": "T2, human D2 dopamine receptors", "settings": "ref Vangveravong et al., 2006; Luedtke et al., 2012; cited from earlier work"}, "D2 dopamine receptor": {"system": "D2 dopamine receptor", "settings": "forskolin-dependent adenylyl cyclase; ref Tu et al., 2011a; cited from earlier work"}, "D3 dopamine receptor": {"system": "D3 dopamine receptor", "settings": "forskolin-dependent adenylyl cyclase; ref Tu et al., 2011a; cited from earlier work"}, "[5]": {"system": "hD2 and hD3 dopamine receptors expressed in HEK-293 cells", "assay": "D2 and D3 dopamine receptor combination experiments", "format": "binding, human", "settings": "radioligand about Kd for hD3, 37°C 30 min, (+)-butaclamol nonspecific"}, "D2 and D3 receptors": {"system": "D2 and D3 receptors", "settings": "humans; ref Tziortzi et al., 2011; Payer et al., 2014a,b; cited from earlier work"}, "[6]": {"target": "T1, human D3 dopamine receptors", "assay": "[125I]IABN radioligand binding, human D3 receptors stably expressed in HEK cells", "settings": "ratio of Ki values of Table I"}, "[7]": {"target": "T1, human D3 dopamine receptors", "settings": "ref Tu et al., 2011a; cited from earlier work"}, "[8]": {"settings": "Ki values [^3H]LS-3-134 rD3-HEK 293, mean ± S.E.M., n ≥ 3, Cheng & Prusoff"}},
  "note": "Counter-ions that a name gives are not always drawn. Like-named read-outs stand apart in the source and are kept apart here.",
  "data": [
    {"compound": "COc1ccc2[nH]cc(CN3CCC(O)(c4ccc(SC)cc4)CC3)c2c1", "note": "[SV 293, 1-((5-methoxy-1H-indol-3-yl)methyl)-4-(4-(methylthio)phenyl)piperidin-4-ol]", "values": [
      {"measurement": "Ki", "setting": "[1]; Ki values [^3H]LS-3-134 hD3-HEK 293, mean ± S.E.M., n ≥ 3, Cheng & Prusoff", "value": "324 ± 39.2", "unit": "nM"},
      {"measurement": "Ki", "setting": "[2]; [8]", "value": "892 ± 44.2", "unit": "nM"},
      {"measurement": "Ki", "setting": "rat striatal tissue", "value": "323 ± 49.1", "unit": "nM"},
      {"measurement": "Binding Selectivity D3:D2", "setting": "[3]", "value": 105},
      {"measurement": "Binding Selectivity D4:D2", "setting": "[3]", "value": 103},
      {"measurement": "selectivity for hD2 dopamine receptors compared to hD3", "setting": "[4]", "value": 100, "unit": "fold"}
    ]},
    {"compound": "O=C(NCCCCN1CCN(c2ccccc2OCCF)CC1)c1ccc(-c2ccsc2)cc1", "note": "[LS-3-134]", "values": [
      {"measurement": "% of full agonist activity at D2", "setting": "D2 dopamine receptor", "value": 29, "unit": "%"},
      {"measurement": "% of full agonist activity at D3", "setting": "D3 dopamine receptor", "value": 35, "unit": "%"}
    ]},
    {"compound": "CCN1CCC[C@H]1CNC(=O)c1c(O)c(Cl)cc(Cl)c1OC", "note": "(racemic) [[^3H]raclopride]", "values": [
      {"measurement": "specific binding on adding increasing amounts of hD2 membranes to constant hD3", "setting": "[5]", "value": "increased specific binding was observed"}
    ]},
    {"compound": "CCCN1CCO[C@@H]2c3cc(O)ccc3CC[C@H]21", "note": "[[^11C](+)-PHNO]", "values": [
      {"measurement": "receptors labelled in PET imaging", "setting": "D2 and D3 receptors", "value": "label both D2 and D3 receptors"}
    ]},
    {"compound": "CCc1cc(Cl)c(OC)c(C(=O)NC[C@@H]2CCCN2CC)c1O", "note": "[Eticlopride, S-(−)-3-chloro-5-ethyl-N-[(1-ethyl-2-pyrrolidinyl)methyl]-6-hydroxy-2-methoxybenzamide hydrochloride]", "values": [
      {"measurement": "Ki", "setting": "[2]; [8]", "value": "0.12 ± 0.05", "unit": "nM"},
      {"measurement": "Ki", "setting": "rat striatal tissue", "value": "0.37 ± 0.09", "unit": "nM"}
    ]},
    {"compound": "COc1ccccc1N1CCN(CCCCNC(=O)c2ccc(N(C)C)cc2)CC1", "note": "[WC 10, 4-(dimethylamino)-N-(4-(4-(2-methoxyphenyl)piperazin-1-yl)butyl)benzamide]", "values": [
      {"measurement": "Binding Selectivity D2:D3", "setting": "[6]", "value": 43},
      {"measurement": "Binding Selectivity D4:D3", "setting": "[6]", "value": 1120},
      {"measurement": "Ki", "setting": "[1]", "value": "1.25 ± 0.36", "unit": "nM"},
      {"measurement": "Ki", "setting": "[2]", "value": "5.71 ± 0.81", "unit": "nM"},
      {"measurement": "Ki", "setting": "rat striatal tissue", "value": "2.46 ± 0.19", "unit": "nM"},
      {"measurement": "D3 vs. D2 dopamine receptor subtype binding selectivity", "setting": "[7]", "value": 43, "unit": "fold"}
    ]},
    {"compound": "COc1cc([125I])cc(C(=O)NC2CC3CCCC(C2)N3Cc2ccccc2)c1OC", "note": "(stereo not shown) [[^125I]IABN]", "values": [
      {"measurement": "specific binding on adding increasing amounts of hD2 membranes to constant hD3", "setting": "[5]", "value": "increased specific binding was observed"}
    ]}
  ]
}
